Laboratory results from US10683272B2 (THE JOHNS HOPKINS UNIVERSITY, priority 2014, dated 2020).

Assay: baboon PET imaging and pharmacokinetics
Format: in vivo, Papio anubis (baboon)
Text: A male Papio anubis (8 y, 27.1 kg) was used to study the biodistribution of ^86Y-6. The baboon was positioned supine during image acquisition. For attenuation correction a low-dose CT image was acquired immediately before the first and last PET images. PET and CT images were co-registered across time points using a Hermes workstation (Hermes Medical Solutions, Greenville, S.C.). Fourteen source organ contours were delineated on the CT with the aid of fused PET/CT images. Decay-corrected mean activity concentrations (Bq/g) were extracted for each source organ from the PET images. Contours were drawn on the PET images of the kidneys, renal cortices, and prostate. The decay-corrected total activity per organ quantified within the PET images had nearly one-to-one correspondence with the administered radioactivity for the first six time points (1 h or less), which confirmed that the administered radioactivity was fully accounted for on the PET images, after which the total amount was less than the administered amount due to voiding. The total amount of radioactivity quantified in each of the PET images was used to obtain the whole-body retention kinetics.
Nine static PET images were acquired at 5, 10, 15, 20, 35 min, 1, 2, 3.5 and 23 h after intravenous administration of 80.7 MBq (2.2 mCi) of ^86Y-6 as a bolus. Images were acquired in 2D mode on a Discovery Rx VCT scanner (GE Healthcare).
For each time-point, the activity concentration (in Bq/cm^3) was measured in each of the 14 delineated organs and multiplied by the organ volume to obtain the total activity per time point per organ. The measured values were then decay-corrected and divided by the baboon organ mass, determined by the CT density and volume from the drawn contours, and the injected radioactivity to obtain the fraction of initial radioactivity per gram (FIA/g) for each time point and each organ. The baboon FIA/g values were then converted to human FIA (per organ) using the following equation (Schwartz et al., 2011; Woodard et al., 1975): […]
That approach assumes that the concentration of activity in a particular tissue relative to the overall concentration in the whole body is preserved across species (i.e., organ concentration/total body concentration is the same for baboon and man). The resulting human FIA values were plotted as a function of time (nine data points) for each organ and fit to a bi-exponential expression: FIA(t)=A1.e^−(λ1^bio^.t)+A2.e^−(Δ2^bio^.t) (2)

[1] = bi-exponential fit, listed as [^86Y]6
[2] = whole-body retention kinetics fit

## O=C([O-])CN1CCN(CC(=O)[O-])CCN(CC(=O)[O-])C(Cc2ccc(NC(=S)NCCCCNC(=O)CCCCCCC(=O)NCCCC[C@H](NC(=O)N[C@@H](CCC(=O)O)C(=O)O)C(=O)O)cc2)CN(CC(=O)[O-])CC1.[86Y+3] (stereo partly drawn) [^86Y-6]
baboon
  percent of kidney radioactivity cleared in the rapid phase: Sixty-eight
  percent of renal cortex radioactivity cleared in the rapid phase: 66%
baboon, about 25 min post-injection
  highest uptake in kidneys: 8 % ID/g
bi-exponential fit
  Brain, biological half-life of A1: 0.71 h
  Brain, biological half-life of A2: 8.71 h
  Brain, fitted parameter A1: 0.53 % ID
  Brain, fitted parameter A2: 0.11 % ID
  Heart, biological half-life of A1: 0.29 h
  Heart, biological half-life of A2: 6.49 h
  Heart, fitted parameter A1: 1.55 % ID
  Heart, fitted parameter A2: 0.29 % ID
  Kidneys, biological half-life of A1: 0.84 h
  Kidneys, biological half-life of A2: 16.6 h
  Kidneys, fitted parameter A1: 6.36 % ID
  Kidneys, fitted parameter A2: 2.98 % ID
  Large intestine, biological half-life of A1: 0.25 h
  Large intestine, biological half-life of A2: 5.97 h
  Large intestine, fitted parameter A1: 0.45 % ID
  Large intestine, fitted parameter A2: 0.30 % ID
  Liver, biological half-life of A1: 0.38 h
  Liver, biological half-life of A2: 7.71 h
  Liver, fitted parameter A1: 4.77 % ID
  Liver, fitted parameter A2: 1.52 % ID
  Lungs, biological half-life of A1: 0.42 h
  Lungs, biological half-life of A2: 6.29 h
  Lungs, fitted parameter A1: 2.78 % ID
  Lungs, fitted parameter A2: 1.27 % ID
  Muscle, biological half-life of A1: 1.98 h
  Muscle, biological half-life of A2: 69.31 h
  Muscle, fitted parameter A1: 14.98 % ID
  Muscle, fitted parameter A2: 0.56 % ID
  Pancreas, biological half-life of A1: 0.66 h
  Pancreas, biological half-life of A2: 10.60 h
  Pancreas, fitted parameter A1: 0.24 % ID
  Pancreas, fitted parameter A2: 0.05 % ID
  Prostate, biological half-life of A1: 0.67 h
  Prostate, biological half-life of A2: 5.58 h
  Prostate, fitted parameter A1: 0.02 % ID
  Prostate, fitted parameter A2: 0.02 % ID
  Renal cortex, biological half-life of A1: 1.1 h
  Renal cortex, biological half-life of A2: about 19 h
  Renal cortex, fitted parameter A1: 4.23 % ID
  Renal cortex, fitted parameter A2: 2.16 % ID
  Salivary glands, biological half-life of A1: 1.56 h
  Salivary glands, biological half-life of A2: 4.47 h
  Salivary glands, fitted parameter A1: 0.30 % ID
  Salivary glands, fitted parameter A2: 0.08 % ID
  Small intestine, biological half-life of A1: 0.26 h
  Small intestine, biological half-life of A2: 10.17 h
  Small intestine, fitted parameter A1: 0.24 % ID
  Small intestine, fitted parameter A2: 0.10 % ID
  Spleen, biological half-life of A1: 1.49 h
  Spleen, biological half-life of A2: 18.74 h
  Spleen, fitted parameter A1: 0.12 % ID
  Spleen, fitted parameter A2: 0.04 % ID
  Stomach, biological half-life of A1: 0.46 h
  Stomach, biological half-life of A2: 6.14 h
  Stomach, fitted parameter A1: 0.15 % ID
  Stomach, fitted parameter A2: 0.09 % ID
[1]
  Kidneys, biological half-life of A2: 16.62 h
  Renal cortex, biological half-life of A2: 19.19 h
[2]
  WB retention, biological half-life of A1: 5.62 h
  WB retention, fitted parameter A1: 100.00 % ID
